In patent US20240228572A1 (i2o Therapeutics, Inc., priority 2020, published 2024):
*1 amine or outer side, *2 acyl side, *3 side chain or, on linkers, in order; H or OH if unused. Where a SMILES comes first, the peptide text is derived from it. Side-chain parts run from the residue outwards. [ ]: non-standard residue; d: D form. The star is where a group is joined. C20 diacid = O=C(O)CCCCCCCCCCCCCCCCCCC(=O)*; γGlu = O=C(O)[C@H](CCC(=O)[*:2])N[*:1]; AEEA = NCCOCCOCC(=O)O; Aib = CC(C)(N)C(=O)O

How the values were obtained:
serum albumin [1] = molecular target: serum albumin (Rattus norvegicus, UniProt P02770); assay: Fraction unbound (fu) in plasma by surface plasmon resonance, rat; assay type: in vitro ADME; settings: SPR binding to serum albumin
Description: (§1) Conventional methods of measuring plasma protein binding, such as equilibrium dialysis, ultrafiltration and ultracentrifugation, are not reliable with peptides because of their tendency to adsorb to the surface of plastic tubing, dialysis membranes and molecular weight cut-off filters. As a result, the extent to which acylated peptides bind to serum albumin was evaluated using surface plasmon resonance (SPR).

[2] = Metabolic stability in human kidney brush border membranes (kBBM); assay type: in vitro ADME; settings: 1 mcM peptide, 50 mcg protein/mL, 37° C., pH 7.4, read-out: kBBM t½
Description: Brush border membranes from rat and human kidney tissue were prepared via centrifugation and stored at −70° C. Thawed stocks of rat or human kBBM were diluted to the appropriate concentration in 25 mM HEPES buffer (pH 7.4) containing 1% casein and aliquoted into a 96-well plate. The kBBM solutions were pre-warmed for 10 minutes at 37° C. Reactions were initiated by the addition of test peptide (1 mcM final concentration) also dissolved in 25 mM HEPES buffer (pH 7.4) containing 1% casein. The final concentration of kBBM in each incubation was 50 mcg protein/mL. Reactions were maintained at 37° C. in a shaking water bath. At 0, 0.25, 0.5, 1.0, 2.0, and 4.0 h post-initiation, 30 mcL of the reaction mixture was removed and placed into a 96-well plate containing 120 mcL of ice-cold methanol containing 2.5% formic acid. Quenched samples were centrifuged at 2178×g for 10 min and then a portion of the supernatants were transferred to a clean 96-well plate and diluted 1:1 with water.

[3] = Stability in subcutaneous (SC) tissue homogenates, monkey; assay type: in vitro ADME; settings: subcutaneous (SC) tissue homogenate, pH 7.4, read-out: (H)SC tissue stability t½ (converted)
Description: In vitro incubations in subcutaneous (SC) tissue homogenates were used to characterize the ability of peptides to resist pre-systemic degradation by proteases and peptidases after SC administration. In vivo nonclinical studies have shown that peptidase activity in the SC space can limit the bioavailability of a peptide after SC administration. Peptides with high SC bioavailability are stable in this assay, while peptides with low SC bioavailability are unstable in this assay.
Human SC tissue was homogenized in cold 25 mM HEPES buffer (pH 7.4, 10-fold volume based on sample weight), and then filtered through a double layer of cheesecloth. The filtrates were aliquoted, flash frozen on a methanol/dry ice bath and stored at −80° C. The protein concentration of each pooled batch was determined using the BCA protein assay. Thawed stocks of human SC tissue homogenates were diluted to 1.0 mg protein/mL in 25 mM HEPES buffer (pH 7.4) and aliquoted into a 96-well plate. The diluted SC homogenates were pre-warmed for 10 minutes at 37° C. Reactions were initiated by the addition of test peptide (10 mcM final concentration) also dissolved in 25 mM HEPES buffer (pH 7.4). Reactions were maintained at 37° C. in a shaking water bath. […] Samples were analyzed by UPLC-MS/MS.

serum albumin [4] = molecular target: serum albumin (Macaca fascicularis, UniProt A2V9Z4); assay: Fraction unbound (fu) in plasma by surface plasmon resonance, monkey; assay type: in vitro ADME; settings: SPR binding to serum albumin
Description: as §1

cynomolgus monkey GCGR = assay: cAMP accumulation assay, CHO-K1 cells expressing cynomolgus monkey GCGR; assay type: cell-based; settings: cyno glucagon receptor
Description: In the presence of the non-specific cAMP/cGMP phosphodiesterase inhibitor, 3-isobutyl-1-methylxanthine (IBMX), accumulating cAMP can be measured in vitro using common detection methods. Thus, it is possible to estimate an in vitro potency (pEC50) for peptides activating each of these receptors using fit dose-response curves for cAMP accumulation.
A cDNA fragment encoding the full-length open reading frame of the cynomolgus monkey GLP-1R (Genebank accession #XM_028847603 was cloned into pcDNA3.1+ for expression in CHO-K1 cells. A cDNA fragment encoding the full-length open reading frame of the human GCGR (Genebank accession #NM_000160 was cloned into pcDNA3.1+ for expression in CHO-K1 cells. A cDNA fragment encoding the full-length open reading frame of the rat GCGR (Genebank accession #NM_12091 was cloned into pcDNA3.1+ for expression in CHO-K1 cells. A cDNA fragment encoding the full-length open reading frame of the cynomolgus monkey GCGR (Genebank accession #XM_005585255 was cloned into pcDNA3.1+ for expression in CHO-K1 cells. […]
Peptides were serially diluted 4-fold in assay buffer to final concentrations ranging from 1×10^−9 M to 9.5×10^−16 M. Two assay controls consisting of 50 mcM forskolin (cAMP system maximum) or assay buffer only (cAMP system minimum) were also prepared. […] Plates were read on an Envision fluorescent plate reader (PerkinElmer). […]

Sequence of serum albumin (Macaca fascicularis, UniProt A2V9Z4) (A2V9Z4 25-608): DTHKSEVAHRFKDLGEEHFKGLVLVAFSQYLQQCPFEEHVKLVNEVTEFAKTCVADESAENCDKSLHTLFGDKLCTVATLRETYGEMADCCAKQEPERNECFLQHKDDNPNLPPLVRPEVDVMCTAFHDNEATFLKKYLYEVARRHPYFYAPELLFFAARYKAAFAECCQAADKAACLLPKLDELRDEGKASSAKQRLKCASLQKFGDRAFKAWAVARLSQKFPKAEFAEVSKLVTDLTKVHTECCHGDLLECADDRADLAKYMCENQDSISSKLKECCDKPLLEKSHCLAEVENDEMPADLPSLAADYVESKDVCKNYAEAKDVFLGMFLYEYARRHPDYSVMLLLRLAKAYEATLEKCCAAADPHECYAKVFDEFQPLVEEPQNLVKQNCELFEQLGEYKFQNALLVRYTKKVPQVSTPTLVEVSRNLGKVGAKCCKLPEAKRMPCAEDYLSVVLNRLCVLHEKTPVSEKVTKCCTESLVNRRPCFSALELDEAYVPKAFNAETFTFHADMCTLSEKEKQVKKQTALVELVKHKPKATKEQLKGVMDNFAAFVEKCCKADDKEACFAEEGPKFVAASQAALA
Sequence of serum albumin (Rattus norvegicus, UniProt P02770) (P02770 25-608): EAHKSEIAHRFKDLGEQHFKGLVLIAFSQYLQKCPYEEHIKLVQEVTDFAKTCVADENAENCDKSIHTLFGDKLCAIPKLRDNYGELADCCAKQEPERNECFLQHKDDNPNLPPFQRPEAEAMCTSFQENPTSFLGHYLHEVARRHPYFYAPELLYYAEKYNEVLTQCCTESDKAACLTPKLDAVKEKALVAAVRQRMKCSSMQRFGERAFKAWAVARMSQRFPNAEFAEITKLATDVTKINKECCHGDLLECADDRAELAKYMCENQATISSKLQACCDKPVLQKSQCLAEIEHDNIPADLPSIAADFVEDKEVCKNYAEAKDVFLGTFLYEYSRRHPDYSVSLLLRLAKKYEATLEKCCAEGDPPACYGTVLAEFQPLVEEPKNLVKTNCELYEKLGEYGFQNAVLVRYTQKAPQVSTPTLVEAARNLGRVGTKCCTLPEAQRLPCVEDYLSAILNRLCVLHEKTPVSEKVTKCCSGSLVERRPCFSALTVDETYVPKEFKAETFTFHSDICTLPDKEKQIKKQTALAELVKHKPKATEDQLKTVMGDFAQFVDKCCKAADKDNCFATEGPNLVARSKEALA

CC(C)C[C@H](NC(=O)[C@H](Cc1ccc(O)cc1)NC(=O)[C@H](CCCCN)NC(=O)[C@H](CO)NC(=O)[C@H](Cc1ccc(O)cc1)NC(=O)[C@H](CC(=O)O)NC(=O)[C@H](CO)NC(=O)[C@@H](NC(=O)[C@H](Cc1ccccc1)NC(=O)[C@@H](NC(=O)CNC(=O)[C@H](Cc1c[nH]cn1)NC(=O)[C@H](CO)NC(=O)[C@@H](N)Cc1ccc(O)cc1)[C@@H](C)O)[C@@H](C)O)C(=O)N[C@@H](CC(=O)O)C(=O)NC(C)(C)C(=O)N[C@@H](CCCCN)C(=O)N[C@@H](Cc1ccc(O)cc1)C(=O)N[C@@H](C)C(=O)N[C@@H](CCC(N)=O)C(=O)N[C@@H](CCCCNC(=O)CC[C@H](NC(=O)CC[C@H](NC(=O)COCCOCCNC(=O)CCCCCCCCCCCCCCCCCCC(=O)O)C(=O)O)C(=O)O)C(=O)N[C@@H](Cc1ccccc1)C(=O)N[C@H](C(=O)NC(C)(C)C(=O)N[C@@H](Cc1c[nH]c2ccccc12)C(=O)N[C@@H](CC(C)C)C(=O)N[C@@H](CCC(=O)O)C(=O)N[C@@H](CC(=O)O)C(=O)N[C@@H](CCC(=O)O)C(=O)N1CCC[C@H]1C(=O)N[C@@H](CO)C(=O)N[C@@H](CO)C(=O)NCC(=O)N[C@@H](C)C(=O)N1CCC[C@H]1C(=O)N1CCC[C@H]1C(=O)N1CCC[C@H]1C(=O)N[C@@H](CO)C(=O)O)C(C)C [Compound A6] (H-YSHGTFTSDYSKYLD[Aib]KYAQK([γGlu-γGlu-AEEA-C20 diacid])FV[Aib]WLEDEPSSGAPPPS-OH; N-terminus assumed)
fraction unbound (serum albumin [1]): 0.0083
half-life at 1 mcM [2]: > 72 h
half-life at 10 mcM [3]: 5 h
fraction unbound (serum albumin [4]): 0.0048
Activity (as EC50 values) cGCGR (cynomolgus monkey GCGR): 9.77
